In patent US20250333424A1, “ANTIVIRAL COMPOUNDS” (Gilead Sciences, Inc., priority 2024, published 2025) one finds EC50 data, which are given here for 25 compounds.

The assay has as its system monocytic THP1 cells infected with HIV VSV-G pseudotyped GFP-NEF reporter virus. Nature of the assay: cells. Type of assay: cell-based. The note with it: Human immunodeficiency virus 1, THP-1, 24 h.

Turning to `Cc1cc(/C=C/C#N)cc(C)c1Oc1nc(NC23CC(C#N)(C2)C3(F)F)nc2nc3n(c12)CCCO3` [Compound 188, (E)-3-((4-(4-(2-cyanovinyl)-2,6-dimethylphenoxy)-7,8-dihydro-6H-[1,3]oxazino[2,3-f]purin-2-yl)amino)-2,2-difluorobicyclo[1.1.1]pentane-1-carbonitrile], the half-maximal effective concentration (EC50) was 70.4 nM.
Compound `Cc1cc(/C=C/C#N)cc(C)c1Oc1nc(NC23CC(C#N)(C2)C3)nc2nc3n(c12)CC(F)(F)CO3` [Compound 189, (E)-3-((4-(4-(2-cyanovinyl)-2,6-dimethylphenoxy)-7,7-difluoro-7,8-dihydro-6H-[1,3]oxazino[2,3-f]purin-2-yl)amino)bicyclo[1.1.1]pentane-1-carbonitrile] registered a half-maximal effective concentration (EC50) of 109 nM.
As to `Cc1cc(/C=C/C#N)cc(C)c1Oc1nc(NC23CC(C#N)(C2)C3)nc2[nH]c(=O)n(C(F)F)c12` [Compound 190, (E)-3-((6-(4-(2-cyanovinyl)-2,6-dimethylphenoxy)-7-(difluoromethyl)-8-oxo-8,9-dihydro-7H-purin-2-yl)amino)bicyclo[1.1.1]pentane-1-carbonitrile], the midpoint of the response, the EC50, lay at 329 nM.
Take `Cc1cc(/C=C/C#N)cc(C)c1Oc1nc(NC23CC(C#N)(C2)C3)nc2nc3n(c12)CCOC3` [Compound 195, (E)-3-((4-(4-(2-cyanovinyl)-2,6-dimethylphenoxy)-6,7-dihydro-9H-[1,4]oxazino[3,4-f]purin-2-yl)amino)bicyclo[1.1.1]pentane-1-carbonitrile]: a half-maximal response (EC50) required 37 nM.
Compound `Cc1cc(/C=C/C#N)cc(C)c1Oc1nc(NC23CC(C#N)(C2)C3)nc2nc3n(c12)CCC3` [Compound 196, (E)-3-((4-(4-(2-cyanovinyl)-2,6-dimethylphenoxy)-7,8-dihydro-6H-pyrrolo[2,1-f]purin-2-yl)amino)bicyclo[1.1.1]pentane-1-carbonitrile] gave an EC50 of 24.6 nM.
As for `Cc1cc(/C=C/C#N)cc(C)c1Oc1nc(NC23CC(C#N)(C2)C3)nc2c1C1(C)OCC(C)(C)CN1C2=O` (stereo not shown) [Compound 197, (E)-3-((4-(4-(2-cyanovinyl)-2,6-dimethylphenoxy)-4b,7,7-trimethyl-10-oxo-4b,7,8,10-tetrahydro-6H-pyrimido[5′,4′:3,4]pyrrolo[2,1-b][1,3]oxazin-2-yl)amino)bicyclo[1.1.1]pentane-1-carbonitrile], the EC50 is 97.3 nM.
In turn, `Cc1cc(/C=C/C#N)cc(C)c1Oc1nc(NC23CC(C#N)(C2)C3)nc2c1C1(C)O[C@@H](CO)CN1C2=O` (stereo partly drawn) [Compound 264, 3-(((6R)-4-(4-((E)-2-cyanovinyl)-2,6-dimethylphenoxy)-6-(hydroxymethyl)-4b-methyl-9-oxo-4b,6,7,9-tetrahydrooxazolo[3′,2′:1,5]pyrrolo[3,4-d]pyrimidin-2-yl)amino)bicyclo[1.1.1]pentane-1-carbonitrile] came in with a 50% effective concentration (EC50) of 118 nM.
`Cc1cc(/C=C/C#N)cc(C)c1Oc1nc(NC23CC(C#N)(C2)C3)nc2c1C(O)(CF)NC2=O` (stereo not shown) [Compound 265, (E)-3-((4-(4-(2-cyanovinyl)-2,6-dimethylphenoxy)-5-(fluoromethyl)-5-hydroxy-7-oxo-6,7-dihydro-5H-pyrrolo[3,4-d]pyrimidin-2-yl)amino)bicyclo[1.1.1]pentane-1-carbonitrile] gave an EC50 of 86.4 nM.
The compound `Cc1cc(/C=C/C#N)cc(C)c1Oc1nc(NC23CC(C#N)(C2)C3)nc2c1/C(=C/F)NC2=O` [Compound 266, 3-(((Z)-4-(4-((E)-2-cyanovinyl)-2,6-dimethylphenoxy)-5-(fluoromethylene)-7-oxo-6,7-dihydro-5H-pyrrolo[3,4-d]pyrimidin-2-yl)amino)bicyclo[1.1.1]pentane-1-carbonitrile] gave a concentration for a half-maximal effect (EC50) of 61 nM.
As to `Cc1cc(/C=C/C#N)cc(C)c1Oc1nc(NC23CC(C#N)(C2)C3)nc2c1C(O)(CF)N(C1CC1)C2=O` (stereo not shown) [Compound 267, (E)-3-((4-(4-(2-cyanovinyl)-2,6-dimethylphenoxy)-6-cyclopropyl-5-(fluoromethyl)-5-hydroxy-7-oxo-6,7-dihydro-5H-pyrrolo[3,4-d]pyrimidin-2-yl)amino)bicyclo[1.1.1]pentane-1-carbonitrile], the concentration for a half-maximal effect (EC50) turned out to be 80.3 nM.
`Cc1cc(/C=C/C#N)cc(C)c1Oc1nc(NC23CC(C#N)(C2)C3)nc2c1/C(=C/F)N(C1CC1)C2=O` [Compound 268, 3-(((Z)-4-(4-((E)-2-cyanovinyl)-2,6-dimethylphenoxy)-6-cyclopropyl-5-(fluoromethylene)-7-oxo-6,7-dihydro-5H-pyrrolo[3,4-d]pyrimidin-2-yl)amino)bicyclo[1.1.1]pentane-1-carbonitrile] had an EC50 of 173 nM.
With `C=C1c2c(Oc3c(C)cc(/C=C/C#N)cc3C)nc(NC34CC(C#N)(C3)C4)nc2C(=O)N1[C@H]1CC[C@@H](O)C1` [Compound 269, 3-((4-(4-((E)-2-cyanovinyl)-2,6-dimethylphenoxy)-6-((1S,3R)-3-hydroxycyclopentyl)-5-methylene-7-oxo-6,7-dihydro-5H-pyrrolo[3,4-d]pyrimidin-2-yl)amino)bicyclo[1.1.1]pentane-1-carbonitrile], a half-maximal response (EC50) required 57.3 nM.
Compound `C=C1c2c(Oc3c(C)cc(/C=C/C#N)cc3C)nc(NC34CC(C#N)(C3)C4)nc2C(=O)N1CCCCO` [Compound 270, (E)-3-((4-(4-(2-cyanovinyl)-2,6-dimethylphenoxy)-6-(4-hydroxybutyl)-5-methylene-7-oxo-6,7-dihydro-5H-pyrrolo[3,4-d]pyrimidin-2-yl)amino)bicyclo[1.1.1]pentane-1-carbonitrile] showed a concentration for a half-maximal effect (EC50) of 19 nM.
Compound `Cc1cc(/C=C/C#N)cc(C)c1Oc1nc(NC23CC(C#N)(C2)C3)nc2c1C1(C)OCC[C@H](C)N1C2=O` (stereo partly drawn) [Compound 271, 3-(((8S)-4-(4-((E)-2-cyanovinyl)-2,6-dimethylphenoxy)-4b,8-dimethyl-10-oxo-4b,7,8,10-tetrahydro-6H-pyrimido[5′,4′:3,4]pyrrolo[2,1-b][1,3]oxazin-2-yl)amino)bicyclo[11.1.1]pentane-1-carbonitrile] returned an EC50 of 52 nM.
Consider `Cc1cc(/C=C/C#N)cc(C)c1Oc1nc(NC23CC(C#N)(C2)C3)nc2c1C1(C)OCC[C@@H](C)N1C2=O` (stereo partly drawn) [Compound 272, 3-(((8R)-4-(4-((E)-2-cyanovinyl)-2,6-dimethylphenoxy)-4b,8-dimethyl-10-oxo-4b,7,8,10-tetrahydro-6H-pyrimido[5′,4′:3,4]pyrrolo[2,1-b][1,3]oxazin-2-yl)amino)bicyclo[1.1.1]pentane-1-carbonitrile], for which the EC50 amounted to 68.3 nM.
In turn, `Cc1cc(/C=C/C#N)cc(C)c1Oc1nc(NC23CC(C#N)(C2)C3)nc2c1C1(C)OCCN1C2=O` (stereo not shown) [Compound 273, (E)-3-((4-(4-(2-cyanovinyl)-2,6-dimethylphenoxy)-4b-methyl-9-oxo-4b,6,7,9-tetrahydrooxazolo[3′,2′:1,5]pyrrolo[3,4-d]pyrimidin-2-yl)amino)bicyclo[1.1.1]pentane-1-carbonitrile] registered a concentration giving a half-maximal response (EC50) of 16 nM.
As to `Cc1cc(/C=C/C#N)cc(C)c1Oc1nc(NC23CC(C#N)(C2)C3)nc2c1nc1n2CC2(CC2)CO1` [Compound 274, (E)-3-((4′-(4-(2-cyanovinyl)-2,6-dimethylphenoxy)-7′H,9′H-spiro[cyclopropane-1,8′-[1,3]oxazino[3,2-e]purin]-2′-yl)amino)bicyclo[1.1.1]pentane-1-carbonitrile], the EC50 worked out at 111 nM.
`Cc1cc(/C=C/C#N)cc(C)c1C(=O)c1nc(NC23CC(C#N)(C2)C3)nc2nn(C)cc12` [Compound 275, (E)-3-((4-(4-(2-cyanovinyl)-2,6-dimethylbenzoyl)-2-methyl-2H-pyrazolo[3,4-d]pyrimidin-6-yl)amino)bicyclo[1.1.1]pentane-1-carbonitrile] returned an EC50 of 113 nM.
Turning to `Cc1cc(/C=C/C#N)cc(C)c1C(O)c1nc(NC23CC(C#N)(C2)C3)nc2nn(C)cc12` (stereo not shown) [Compound 276, (E)-3-((4-((4-(2-cyanovinyl)-2,6-dimethylphenyl)(hydroxy)methyl)-2-methyl-2H-pyrazolo[3,4-d]pyrimidin-6-yl)amino)bicyclo[1.1.1]pentane-1-carbonitrile], the midpoint of the response, the EC50, lay at 194 nM.
As for `Cc1cc(/C=C/C#N)cc(C)c1Cc1nc(NC23CC(C#N)(C2)C3)nc2nn(C)cc12` [Compound 277, (E)-3-((4-(4-(2-cyanovinyl)-2,6-dimethylbenzyl)-2-methyl-2H-pyrazolo[3,4-d]pyrimidin-6-yl)amino)bicyclo[1.1.1]pentane-1-carbonitrile], a half-maximal response (EC50) required 49.9 nM.
To `Cc1cc(/C=C/C#N)cc(C)c1Oc1nc(NC23CC(C#N)(C2)C3)nc2c1[C@@H]1OCCCN1C2=O` [Compound 279, (S,E)-3-((4-(4-(2-cyanovinyl)-2,6-dimethylphenoxy)-10-oxo-4b,7,8,10-tetrahydro-6H-pyrimido[5′,4′:3,4]pyrrolo[2,1-b][1,3]oxazin-2-yl)amino)bicyclo[1.1.1]pentane-1-carbonitrile] belongs 57.2 nM; to `Cc1cc(/C=C/C#N)cc(C)c1Oc1nc(NC23CC(C#N)(C2)C3)nc2c1[C@H]1OCCCN1C2=O` [Compound 280, (R,E)-3-((4-(4-(2-cyanovinyl)-2,6-dimethylphenoxy)-10-oxo-4b,7,8,10-tetrahydro-6H-pyrimido[5′,4′:3,4]pyrrolo[2,1-b][1,3]oxazin-2-yl)amino)bicyclo[1.1.1]pentane-1-carbonitrile], 33.7 nM; to `Cc1cc(/C=C/C#N)cc(C)c1Oc1nc(NC23CC(C#N)(C2)C3)nc2c1C(O)NC2=O` (stereo not shown) [Compound 286, (E)-3-((4-(4-(2-cyanovinyl)-2,6-dimethylphenoxy)-5-hydroxy-7-oxo-6,7-dihydro-5H-pyrrolo[3,4-d]pyrimidin-2-yl)amino)bicyclo[1.1.1]pentane-1-carbonitrile], 72.4 nM.
In turn, `COC1NC(=O)c2nc(NC34CC(C#N)(C3)C4)nc(Oc3c(C)cc(/C=C/C#N)cc3C)c21` (stereo not shown) [Compound 287, (E)-3-((4-(4-(2-cyanovinyl)-2,6-dimethylphenoxy)-5-methoxy-7-oxo-6,7-dihydro-5H-pyrrolo[3,4-d]pyrimidin-2-yl)amino)bicyclo[1.1.1]pentane-1-carbonitrile] had an EC50 of 26.2 nM.
`CCOC1NC(=O)c2nc(NC34CC(C#N)(C3)C4)nc(Oc3c(C)cc(/C=C/C#N)cc3C)c21` (stereo not shown) [Compound 288, (E)-3-((4-(4-(2-cyanovinyl)-2,6-dimethylphenoxy)-5-ethoxy-7-oxo-6,7-dihydro-5H-pyrrolo[3,4-d]pyrimidin-2-yl)amino)bicyclo[1.1.1]pentane-1-carbonitrile] came in with an EC50 of 29.8 nM.
